{"source": "patent US20180024136A1", "about": "“Development of ABCG2-Sensitive Fluorescent Probe For Isolation of ABCG2low Neural Stem/Progenitor Cells” (National University of Singapore, priority 2015, published 2018)", "key": {"[1]": {"tested_on": "NS-5 cells", "assay": "DOFLA screening: live cell staining of MEF, mESC, NS5 and differentiated NS5", "type": "cell-based, mouse", "details": "1 μM, 1 hour, NS5, D-NS5", "procedure": "The screening platform was composed of mouse embryonic fibroblast (MEF), mouse embryonic stem cells (mESC), NS5 and differentiated NS5 (D-NS5) (FIG. 4). A derivate from the CF library was selected having eleven saturated carbon chain (CF-C11), named as compound of designation green 13 (CDg13, λabs/λem=520/553 nm; quantum yield=0.82) (FIG. 4A, Table 3). […] To characterize the subcellular target of the CDg13 probe, the image of CDg13 using confocal microscopy was analyzed. The CDg13 stained organelle was clearly merged with the staining of a molecular probe that targeted endoplasmic reticulum (ER), but not with Golgi, lysosome, and mitochondria targeted probes (FIG. 4C). The value of co-localization with ER was appeared as 0.97 on both of Pearson's Collection and Mander's overlap, whereas other organelle markers were below 0.83.\nScreening of fluorescent probes of DOFL was conducted using high-throughput imaging analysis as previously described^7.\nHoechst 33342 (2 μM) and CDg13 (1 μM) were added to the cell culture medium. After incubation for 1 hour, culture media were changed with BSA-free medium to maintain CDg13 staining. […] The subcellular staining was observed under confocal microscope and their co-localizations were analyzed by Pearson's Collection and Mander's overlap using NIS-Elements software of Eclipse Ti microscope (Nikon)."}, "[2]": {"target": "ABCB1 (Homo sapiens, UniProt P08183)", "sequence (P08183 whole entry)": "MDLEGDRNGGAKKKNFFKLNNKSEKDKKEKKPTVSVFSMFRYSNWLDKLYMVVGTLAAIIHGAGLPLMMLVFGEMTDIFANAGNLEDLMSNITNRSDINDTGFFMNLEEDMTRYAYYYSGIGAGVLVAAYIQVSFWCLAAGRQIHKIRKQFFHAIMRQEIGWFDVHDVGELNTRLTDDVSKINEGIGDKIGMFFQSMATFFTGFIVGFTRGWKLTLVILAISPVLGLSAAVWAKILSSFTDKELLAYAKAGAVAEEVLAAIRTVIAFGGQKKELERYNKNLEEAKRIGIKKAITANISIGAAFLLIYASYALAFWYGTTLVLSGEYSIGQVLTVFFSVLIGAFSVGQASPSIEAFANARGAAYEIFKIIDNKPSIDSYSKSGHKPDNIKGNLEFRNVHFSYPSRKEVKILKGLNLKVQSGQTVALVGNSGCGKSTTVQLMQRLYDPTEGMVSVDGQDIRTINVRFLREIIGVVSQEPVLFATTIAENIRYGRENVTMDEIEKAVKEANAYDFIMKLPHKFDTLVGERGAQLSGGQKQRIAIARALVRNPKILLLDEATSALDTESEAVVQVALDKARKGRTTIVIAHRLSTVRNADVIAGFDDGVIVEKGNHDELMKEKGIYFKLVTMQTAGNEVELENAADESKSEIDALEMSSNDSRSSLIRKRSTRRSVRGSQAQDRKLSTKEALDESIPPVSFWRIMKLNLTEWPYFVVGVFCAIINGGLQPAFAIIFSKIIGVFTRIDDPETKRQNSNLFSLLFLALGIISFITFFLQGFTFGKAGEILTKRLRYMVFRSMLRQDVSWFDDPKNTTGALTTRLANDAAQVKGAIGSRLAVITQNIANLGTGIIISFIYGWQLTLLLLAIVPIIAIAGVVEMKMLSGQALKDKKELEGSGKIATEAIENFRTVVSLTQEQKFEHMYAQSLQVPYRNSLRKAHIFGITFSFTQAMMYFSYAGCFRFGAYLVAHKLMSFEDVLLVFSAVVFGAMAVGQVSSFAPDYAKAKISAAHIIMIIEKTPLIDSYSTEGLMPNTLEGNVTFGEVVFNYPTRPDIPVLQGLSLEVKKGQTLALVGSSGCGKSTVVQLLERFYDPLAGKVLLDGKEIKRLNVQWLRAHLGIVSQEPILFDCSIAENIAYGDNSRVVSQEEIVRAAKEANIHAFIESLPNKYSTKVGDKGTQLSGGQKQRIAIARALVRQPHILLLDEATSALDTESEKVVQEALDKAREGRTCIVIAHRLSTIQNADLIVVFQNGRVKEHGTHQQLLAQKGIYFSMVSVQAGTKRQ", "assay": "in vitro"}, "[3]": {"assay": "Spectroscopic properties of CF library (absorbance, emission, quantum yield, extinction coefficient)", "type": "physicochemical", "procedure": "All the chemicals and solvents were purchased from Sigma Aldrich, Alfa Aesar, Fluka, MERCK, Tocris or Acros, and used without further purification. Normal phase purifications were carried out using Merck Silica Gel 60 (particle size: 0.040-0.063 mm, 230-400 mesh). Analytical characterization was performed on a HPLC-MS (Agilent-1200 series) with a DAD detector and a single quadrupole mass spectrometer (6130 series) with an ESI probe. ^1H-NMR and ^13C-NMR spectra were recorded on Bruker Avance 300 MHz NMR spectrometers, and chemical shifts are expressed in parts per million (ppm) and coupling constants are reported as a J value in Hertz (Hz). High resolution mass spectrometry (HRMS) data was recorded on a Micro mass VG 7035 (Mass Spectrometry Laboratory at National University of Singapore (NUS)). Spectroscopic and quantum yield data were measured on spectroscopic measurements, performed on a fluorometer and UV/VIS instrument, Synergy 4 of Bioteck Company. The slit width was 1 nm for both excitation and emission, and the data analysis was performed using GraphPrism 5.0."}, "[4]": {"tested_on": "neurospheres from E14.5 mouse embryonic brain", "assay": "Neuronal differentiation of primary neurospheres (Tuj1/GFAP immunostaining)", "type": "cell-based", "details": "neurospheres from sorted cells, 150 per group", "procedure": "All animal experiments were approved by the Biomedical Research Council Singapore, Institutional Animal Care and Use Committee (IACUC). E14.5 embryos were obtained from C57BL/6 pregnant mice. Cerebral cortices were removed and triturated into single-cell suspension by digestion of dissected tissues with StemPro® Accutase® (Invitrogen) and filtered through 40 μm nylon mesh. Dissociated cells were seeded at a density of 1×10^3 cells/cm^2 in neurosphere growth medium [DMEM/F12 supplemented with 2% B27 (without vitamin A), bFGF (10 ng/ml), EGF (20 ng/ml), 1× anti-anti]. All the cell culture components were from Invitrogen. Passaging of neurosphere was conducted through single cell dissociation of neurospheres as described above. […]\nMore than a hundred of differentiated neurospheres were fixed in paraformaldehyde (4%, w/v) for 15 min, permeabilized in Triton X-100 (0.1% v/v), and blocked with BSA (3% w/v) for 1 hour. […] The existence of clear Tuj1 positive cells inside a differentiated neurosphere were counted as neuron-contained neurospheres. Neuronal clumps were counted if more than 10 of nuclei of neuronal cells are packaged each other. Neurite outgrowth of Tuj1 positive cells were measured using neurite outgrowth module parameter of MetaXpress ([…]) with maximum width of 1 μm. The phases with high neurite outgrowth were selected and counted at least 300 cells."}, "[5]": {"tested_on": "Abcg2", "assay": "CDg13 staining of Abcg2 knockdown D-NS5 cells", "type": "cell-based, mouse", "details": "D-NS5, siAbcg2 versus controls, 1 hour staining", "procedure": "FIGS. 9A-9D show gene expression of ABC transporters: (A) undifferentiated (NS5) and 3-days differentiated NS5 (D-NS5), (B) the mRNA expression of the indicated ABC transporters were analyzed by qRT-PCR using total RNA from control and Abcg2-targeted siRNA transfected D-NS5 cells (N=3), and (C) and (D) negative (−) control siRNA (siCon) and Abcg2-targeted siRNA (siAbcg2) treated D-NS5 cells were stained with CDg13 for 1 hour, representative cells image (C) and the intensity staining of CDg13 (D) are shown (N=3) (data were normalized by β-actin expression and represented as relative fold, all values are means±SEM, *, p<0.05; **, p<0.01, unpaired two-tailed Student's T-test was used to calculate statistical significance)(Bar in (C): 100 μm).\nsiRNAs targeted to mouse ABCG2 gene and non-targeted control (Santa Cruz) were transiently introduced to 2 days differentiated NS-5 cells by using RNAiMAX (Invitrogen). We used 20 nM of siRNA and 3 μl of RNAiMAX for transfecting one well of 12-well plate (70-80% confluence with cells). Transfection efficiency in the condition was more than 90% as measured by fluorescence non-targeted siRNA. The levels of RNA and their analysis were performed after 3 days of transfection."}, "[6]": {"tested_on": "human KB3-1 cells", "assay": "MTS viability assay on KB3-1 cells", "type": "cell-based", "details": "48 h"}}, "data": [{"smiles": "CCCCCCCCCN(CCCCCCCCC)C(=O)c1ccc(-c2c3cc(Cl)c(=O)cc-3oc3cc(O)c(Cl)cc23)cc1", "note": "[CDg13]", "values": [{"measurement": "cell type staining selectivity", "setting": "[1]", "value": "preferentially stains undifferentiated NS-5 cells, a NSPC line, but not other cell types"}, {"measurement": "fold induction at 1 h, 10 µM", "setting": "[2]", "value": 1.5}, {"measurement": "Abs (nm)", "setting": "[3]; 100 μM in ethanol", "value": 520, "unit": "nm"}, {"measurement": "Em (nm)", "setting": "[3]; 100 μM in ethanol", "value": 553, "unit": "nm"}, {"measurement": "QY (Φ)", "setting": "[3]; 100 μM in ethanol, reference fluorescein", "value": 0.82}, {"measurement": "extinction co-efficient", "setting": "[3]; measured in ethanol", "value": 40933.2, "unit": "M⁻¹ cm⁻¹"}, {"measurement": "neurospheres differentiated to neuron in the whole spheres", "setting": "[4]", "value": 95.3, "unit": "%"}, {"measurement": "CDg13 staining increase by Abcg2 knockdown", "setting": "[5]", "value": "around 2 fold"}, {"measurement": "toxicity", "setting": "[6]; 1 to 10 μM", "value": "No toxicity was observed"}, {"measurement": "concentration at which cells started dying", "setting": "[6]", "value": 50, "unit": "µM"}]}]}
